Reference: patent US8541588B2, “Sulfonamide derivatives” (Pfizer Limited, priority 2009, dated 2013)

target: T1, Nav1.7 (or SCN9A) channel; HEK cells stably transfected with hSCN9A (Homo sapiens, UniProt Q15858); experiment: Nav1.7 block, PatchXpress 7000 automated whole-cell voltage clamp, estimated IC50 (EIC50); format: cell-based; details: PatchXpress platform; hSCN9A HEK cells held at V1/2 of inactivation; estimated IC50
T1 construct: expressed in transfected cells
T1 sequence (Q15858 whole entry): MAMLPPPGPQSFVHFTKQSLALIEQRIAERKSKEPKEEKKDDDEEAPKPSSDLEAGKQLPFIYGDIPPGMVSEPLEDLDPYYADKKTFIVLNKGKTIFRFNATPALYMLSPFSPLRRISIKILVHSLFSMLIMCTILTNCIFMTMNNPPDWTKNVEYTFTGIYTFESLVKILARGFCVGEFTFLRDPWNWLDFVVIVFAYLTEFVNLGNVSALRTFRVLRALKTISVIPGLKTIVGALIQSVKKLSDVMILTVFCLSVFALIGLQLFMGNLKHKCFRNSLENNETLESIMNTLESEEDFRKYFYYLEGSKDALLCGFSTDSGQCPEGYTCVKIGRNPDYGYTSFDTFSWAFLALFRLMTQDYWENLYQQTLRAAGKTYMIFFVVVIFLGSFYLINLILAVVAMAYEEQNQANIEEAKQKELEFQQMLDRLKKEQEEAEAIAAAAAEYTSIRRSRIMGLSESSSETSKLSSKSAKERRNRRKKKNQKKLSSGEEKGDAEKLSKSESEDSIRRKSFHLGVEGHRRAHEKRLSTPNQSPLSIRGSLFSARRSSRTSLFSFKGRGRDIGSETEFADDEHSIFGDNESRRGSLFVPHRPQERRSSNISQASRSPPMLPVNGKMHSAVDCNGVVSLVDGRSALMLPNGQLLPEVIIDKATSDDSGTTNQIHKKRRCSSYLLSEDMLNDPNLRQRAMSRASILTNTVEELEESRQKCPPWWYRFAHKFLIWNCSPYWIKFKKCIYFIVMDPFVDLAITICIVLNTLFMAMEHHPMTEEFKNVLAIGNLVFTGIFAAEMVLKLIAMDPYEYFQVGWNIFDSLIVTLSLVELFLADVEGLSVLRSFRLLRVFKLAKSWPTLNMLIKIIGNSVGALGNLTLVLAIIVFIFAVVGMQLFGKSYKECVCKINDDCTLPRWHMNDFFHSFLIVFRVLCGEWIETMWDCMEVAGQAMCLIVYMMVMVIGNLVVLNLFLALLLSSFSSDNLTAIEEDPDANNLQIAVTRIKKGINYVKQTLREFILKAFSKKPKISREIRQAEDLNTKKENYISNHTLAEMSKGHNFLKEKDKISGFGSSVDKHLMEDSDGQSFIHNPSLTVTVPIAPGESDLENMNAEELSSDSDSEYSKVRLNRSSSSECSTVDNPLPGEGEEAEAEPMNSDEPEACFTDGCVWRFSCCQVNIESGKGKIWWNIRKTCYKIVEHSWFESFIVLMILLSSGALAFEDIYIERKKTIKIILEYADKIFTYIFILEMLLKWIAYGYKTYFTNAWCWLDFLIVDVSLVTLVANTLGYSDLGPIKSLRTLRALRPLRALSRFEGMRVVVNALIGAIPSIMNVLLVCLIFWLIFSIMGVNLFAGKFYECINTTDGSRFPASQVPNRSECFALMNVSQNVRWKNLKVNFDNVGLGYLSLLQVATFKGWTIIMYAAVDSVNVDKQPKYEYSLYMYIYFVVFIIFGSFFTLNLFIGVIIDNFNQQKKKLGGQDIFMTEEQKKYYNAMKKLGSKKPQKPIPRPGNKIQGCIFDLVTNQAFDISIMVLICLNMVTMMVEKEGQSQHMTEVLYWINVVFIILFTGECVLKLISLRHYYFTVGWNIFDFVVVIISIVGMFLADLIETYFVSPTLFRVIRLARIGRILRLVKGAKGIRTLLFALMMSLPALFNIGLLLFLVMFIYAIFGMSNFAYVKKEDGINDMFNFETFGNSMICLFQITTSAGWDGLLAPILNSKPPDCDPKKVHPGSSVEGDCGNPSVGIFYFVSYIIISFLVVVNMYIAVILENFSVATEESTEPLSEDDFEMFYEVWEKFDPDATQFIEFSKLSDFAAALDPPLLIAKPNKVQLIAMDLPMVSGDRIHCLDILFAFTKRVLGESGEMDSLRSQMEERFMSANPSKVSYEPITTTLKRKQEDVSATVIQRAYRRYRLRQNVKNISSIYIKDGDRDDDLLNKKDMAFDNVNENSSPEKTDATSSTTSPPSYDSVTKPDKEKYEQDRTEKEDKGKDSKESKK

**Q.** O=S(=O)(Nc1ncns1)c1ccc(Oc2ccc(CC3CC3)cc2)c(Cl)c1 [Example 148, 3-chloro-4-[4-(cyclopropylmethyl)phenoxy]-N-1,2,4-thiadiazol-5-ylbenzenesulfonamide] was tested. Which IC50 did it give?
**A.** 2530 nM

**Q.** For CCc1nsc(NS(=O)(=O)c2ccc(Oc3ccccc3-c3ccccc3)c(C#N)c2)n1 [Example 102, 4-(biphenyl-2-yloxy)-3-cyano-N-(3-ethyl-1,2,4-thiadiazol-5-yl)benzenesulfonamide], which IC50 is on record?
**A.** >10000 nM

**Q.** With O=S(=O)(Nc1nccs1)c1ccc(Oc2ccccc2-c2ccccc2)cc1 [Example 276, 4-(biphenyl-2-yloxy)-N-thiazol-2-yl-benzenesulfonamide] as the compound, how does the IC50 read?
**A.** 550 nM

**Q.** Which IC50 does the source give for N#Cc1cc(S(=O)(=O)Nc2ncc(Cl)s2)ccc1Oc1cc(C(F)(F)F)nn1Cc1ccccc1 [Example 142, 4-{[1-benzyl-3-(trifluoromethyl)-1H-pyrazol-5-yl]oxy}-N-(5-chloro-1,3-thiazol-2-yl)-3-cyanobenzenesulfonamide] here?
**A.** 2620 nM

**Q.** Which IC50 does the source give for N#Cc1cc(S(=O)(=O)Nc2nccs2)ccc1Oc1ccc(F)cc1-c1ccc(F)cc1 [Example 152, 3-cyano-4-[(4′,5-difluorobiphenyl-2-yl)oxy]-N-1,3-thiazol-2-ylbenzenesulfonamide] here?
**A.** 80 nM

**Q.** Which IC50 does the source give for N#Cc1cc(S(=O)(=O)Nc2ccnc(C(F)(F)F)n2)ccc1Oc1ccccc1-c1ccccc1 [Example 116, 4-(biphenyl-2-yloxy)-3-cyano-N-[2-(trifluoromethyl)pyrimidin-4-yl]benzenesulfonamide] here?
**A.** 3110 nM

**Q.** For N#Cc1cc(S(=O)(=O)Nc2ncns2)ccc1Oc1nnccc1-c1ccccc1 [Example 21, 3-cyano-4-[(4-phenylpyridazin-3-yl)oxy]-N-1,2,4-thiadiazol-5-ylbenzenesulfonamide], which IC50 is on record?
**A.** >10000 nM

**Q.** With N#Cc1cc(S(=O)(=O)Nc2ccccc2)ccc1Oc1ccccc1-c1ccccc1 [Example 114, 4-(biphenyl-2-yloxy)-3-cyano-N-phenylbenzenesulfonamide] as the compound, how does the IC50 read?
**A.** >10000 nM

**Q.** How did the IC50 turn out when O=S(=O)(Nc1nccs1)c1ccc(Oc2ccc(CN3CCC3)c(F)c2)c(F)c1 [Example 125, 4-[4-(azetidin-1-ylmethyl)-3-fluorophenoxy]-3-fluoro-N-1,3-thiazol-2-ylbenzenesulfonamide] was run?
**A.** 23000 nM

same assay, conditions: estimated IC50; hSCN9A HEK cells, PatchXpress platform; Examples 283-814

**Q.** With Cn1nccc1-c1ccc(Oc2ccc(S(=O)(=O)Nc3nccs3)cc2C#N)cc1 [Example 436, 3-cyano-4-[4-(1-methyl-1H-pyrazol-5-yl)phenoxy]-N-1,3-thiazol-2-ylbenzenesulfonamide] as the compound, how does the IC50 read?
**A.** 1300 nM

**Q.** Which IC50 does the source give for CC(C)n1cc(-c2cc(Cl)ccc2Oc2ccc(S(=O)(=O)Nc3ncns3)cc2C#N)cn1 [Example 283, 4-[4-chloro-2-(1-isopropyl-1H-pyrazol-4-yl)phenoxy]-3-cyano-N-1,2,4-thiadiazol-5-ylbenzenesulfonamide] here?
**A.** 580 nM

**Q.** For Cn1ncnc1-c1cc(Cl)ccc1Oc1ccc(S(=O)(=O)Nc2ncc(F)s2)cc1C#N [Example 717, 4-[4-chloro-2-(1-methyl-1H-1,2,4-triazol-5-yl)phenoxy]-3-cyano-N-(5-fluoro-1,3-thiazol-2-yl)benzenesulfonamide], which IC50 is on record?
**A.** >300 nM

**Q.** How did the IC50 turn out when O=S(=O)(Nc1nccs1)c1ccc(Oc2ccc(Cl)cc2-c2cn[nH]c2)c(F)c1 [Example 685, 4-[4-chloro-2-(1H-pyrazol-4-yl)phenoxy]-3-fluoro-N-1,3-thiazol-2-ylbenzenesulfonamide] was run?
**A.** 130 nM

**Q.** N#Cc1cc(S(=O)(=O)Nc2cscn2)ccc1Oc1ccc(F)cc1-c1cnn(CC(F)(F)F)c1 [Example 415, 4-{4-fluoro-2-[1-(2,2,2-trifluoroethyl)-1H-pyrazol-4-yl]phenoxy}-3-cyano-N-1,3-thiazol-4-ylbenzenesulfonamide] was tested. Which IC50 did it give?
**A.** >1000 nM

**Q.** With N#Cc1cccc(NS(=O)(=O)c2ccc(Oc3ccccc3-c3ccccc3)c(C#N)c2)n1 [Example 421, 4-(biphenyl-2-yloxy)-3-cyano-N-(6-cyanopyridin-2-yl)benzenesulfonamide] as the compound, how does the IC50 read?
**A.** 12000 nM

**Q.** With CCc1cc(-n2cccn2)ccc1Oc1ccc(S(=O)(=O)Nc2nccs2)cc1C#N [Example 489, 3-cyano-4-[2-ethyl-4-(1H-pyrazol-1-yl)phenoxy]-N-1,3-thiazol-2-ylbenzenesulfonamide] as the compound, how does the IC50 read?
**A.** 1200 nM

**Q.** Which IC50 does the source give for O=S(=O)(Nc1ncns1)c1cc(Cl)c(Oc2ccc(F)cc2-c2ccnn2C2CNC2)cc1F [Example 810, 4-[2-(1-azetidin-3-yl-1H-pyrazol-5-yl)-4-fluorophenoxy]-5-chloro-2-fluoro-N-1,2,4-thiadiazol-5-ylbenzenesulfonamide] here?
**A.** 3.8 nM

**Q.** N#Cc1cc(S(=O)(=O)Nc2ncc(Cl)s2)ccc1Oc1ccc(F)cc1-c1cn[nH]c1 [Example 785, N-(5-Chloro-1,3-thiazol-2-yl)-3-cyano-4-[4-fluoro-2-(1H-pyrazol-4-yl)phenoxy]benzenesulfonamide] was tested. Which IC50 did it give?
**A.** 40 nM

**Q.** N#Cc1cc(S(=O)(=O)Nc2nccs2)ccc1Oc1ccc(-n2ccc(C(F)(F)F)n2)c(F)c1 [Example 381, 3-cyano-4-{3-fluoro-4-[3-(trifluoromethyl)-1H-pyrazol-1-yl]phenoxy}-N-1,3-thiazol-2-ylbenzenesulfonamide] was tested. Which IC50 did it give?
**A.** 470 nM

**Q.** For Cc1ncsc1-c1cc(Cl)ccc1Oc1ccc(S(=O)(=O)Nc2nccs2)cc1C#N [Example 698, 4-[4-chloro-2-(4-methyl-1,3-thiazol-5-yl)phenoxy]-3-cyano-N-1,3-thiazol-2-ylbenzenesulfonamide], which IC50 is on record?
**A.** 96 nM

**Q.** O=S(=O)(Nc1nncs1)c1cc(Cl)c(Oc2ccc(C(F)(F)F)cc2-c2cn[nH]c2)cc1F [Example 764, 5-chloro-2-fluoro-4-[2-(1H-pyrazol-4-yl)-4-(trifluoromethyl)phenoxy]-N-1,3,4-thiadiazol-2-ylbenzenesulfonamide] was tested. Which IC50 did it give?
**A.** 30 nM

**Q.** With Cn1nccc1-c1cc(Cl)ccc1Oc1ccc(S(=O)(=O)Nc2ncsc2Cl)cc1C#N [Example 413, 4-[4-chloro-2-(1-methyl-1H-pyrazol-5-yl)phenoxy]-N-(5-chloro-1,3-thiazol-4-yl)-3-cyanobenzenesulfonamide] as the compound, how does the IC50 read?
**A.** 12000 nM

**Q.** How did the IC50 turn out when O=S(=O)(Nc1cscn1)c1cc(Cl)c(Oc2cc(C(F)(F)F)ccc2-c2cncnc2)cc1F [Example 518, 5-chloro-2-fluoro-4-[2-pyrimidin-5-yl-5-(trifluoromethyl)phenoxy]-N-1,3-thiazol-4-ylbenzenesulfonamide] was run?
**A.** >1000 nM

**Q.** How did the IC50 turn out when CC(C)(C)n1nccc1-c1cc(Cl)ccc1Oc1ccc(S(=O)(=O)Nc2ncns2)cc1Cl [Example 474, 4-[2-(1-tert-butyl-1H-pyrazol-5-yl)-4-chlorophenoxy]-3-chloro-N-1,2,4-thiadiazol-5-ylbenzenesulfonamide] was run?
**A.** 44 nM

**Q.** For Cn1nccc1-c1cc(Cl)ccc1Oc1ccc(S(=O)(=O)Nc2ccc(C#N)cn2)cc1C#N [Example 466, 4-[4-chloro-2-(1-methyl-1H-pyrazol-5-yl)phenoxy]-3-cyano-N-(5-cyanopyridin-2-yl)benzenesulfonamide], which IC50 is on record?
**A.** 36000 nM

**Q.** Cn1nccc1-c1cc(Cl)ccc1Oc1ccc(S(=O)(=O)Nc2ncsc2F)cc1C#N [Example 602, 4-[4-chloro-2-(1-methyl-1H-pyrazol-5-yl)phenoxy]-3-cyano-N-(5-fluoro-1,3-thiazol-4-yl)benzenesulfonamide] was tested. Which IC50 did it give?
**A.** 1500 nM

**Q.** N#Cc1cccc(-c2cc(C(F)(F)F)ccc2Oc2ccc(S(=O)(=O)Nc3ncns3)cc2C#N)c1 [Example 509, 3-cyano-4-{[3′-cyano-5-(trifluoromethyl)biphenyl-2-yl]oxy}-N-1,2,4-thiadiazol-5-ylbenzenesulfonamide] was tested. Which IC50 did it give?
**A.** 31 nM

**Q.** Which IC50 does the source give for O=S(=O)(Nc1cscn1)c1cc(Cl)c(Oc2ccc(F)cc2-c2ccnn2C2CNC2)cc1F [Example 808, 4-[2-(1-Azetidin-3-yl-1H-pyrazol-5-yl)-4-fluorophenoxy]-5-chloro-2-fluoro-N-1,3-thiazol-4-ylbenzenesulfonamide] here?
**A.** 7 nM

same assay, conditions: estimated IC50; hSCN9A HEK cells, PatchXpress platform; Examples 815-1040

**Q.** Cn1nccc1-c1cc(Cl)ccc1Oc1ccc(S(=O)(=O)Nc2cnsn2)cc1C#N [Example 921, 4-[4-chloro-2-(1-methyl-1H-pyrazol-5-yl)phenoxy]-3-cyano-N-1,2,5-thiadiazol-3-ylbenzenesulfonamide] was tested. Which IC50 did it give?
**A.** 3900 nM

**Q.** COc1nccnc1NS(=O)(=O)c1ccc(Oc2ccc(Cl)cc2-c2ccnn2C)c(C#N)c1 [Example 916, 4-[4-chloro-2-(1-methyl-1H-pyrazol-5-yl)phenoxy]-3-cyano-N-(3-methoxypyrazin-2-yl)benzenesulfonamide] was tested. Which IC50 did it give?
**A.** >10000 nM

**Q.** With O=S(=O)(Nc1nncs1)c1cc(Cl)c(Oc2ccc(Cl)c(F)c2-c2ccnnc2)cc1F [Example 956, 5-chloro-4-(4-chloro-3-fluoro-2-pyridazin-4-ylphenoxy)-2-fluoro-N-1,3,4-thiadiazol-2-ylbenzenesulfonamide] as the compound, how does the IC50 read?
**A.** 130 nM

**Q.** How did the IC50 turn out when O=S(=O)(Nc1ncns1)c1cc(F)c(Oc2ccc(Cl)cc2-c2ccnnc2)cc1F [Example 879, 4-(4-chloro-2-pyridazin-4-ylphenoxy)-2,5-difluoro-N-1,2,4-thiadiazol-5-ylbenzenesulfonamide] was run?
**A.** 7 nM

**Q.** How did the IC50 turn out when O=S(=O)(Nc1nncs1)c1cc(Cl)c(Oc2ccc(Cl)cc2-c2cccc(CN3CCC3)n2)cc1F [Example 831, 4-{2-[6-(azetidin-1-ylmethyl)pyridin-2-yl]-4-chlorophenoxy}-5-chloro-2-fluoro-N-1,3,4-thiadiazol-2-ylbenzenesulfonamide] was run?
**A.** 63 nM

**Q.** For Nc1n[nH]cc1-c1cc(Cl)ccc1Oc1cc(F)c(S(=O)(=O)Nc2cccnn2)cc1Cl [Example 1038, 4-[2-(3-amino-1H-pyrazol-4-yl)-4-chlorophenoxy]-5-chloro-2-fluoro-N-pyridazin-3-ylbenzenesulfonamide], which IC50 is on record?
**A.** 34 nM

**Q.** How did the IC50 turn out when CCOC(=O)c1cnn(-c2ccc(Oc3ccc(S(=O)(=O)Nc4nccs4)cc3C#N)cc2)c1 [Example 996, ethyl 1-(4-{2-cyano-4-[(1,3-thiazol-2-ylamino)sulfonyl]phenoxy}phenyl)-1H-pyrazole-4-carboxylate] was run?
**A.** 760 nM

**Q.** With O=S(=O)(Nc1ccc(F)cn1)c1cc(F)c(Oc2ccc(Cl)cc2-c2ccnnc2)cc1F [Example 846, 4-(4-chloro-2-pyridazin-4-ylphenoxy)-2,5-difluoro-N-(5-fluoropyridin-2-yl)benzenesulfonamide] as the compound, how does the IC50 read?
**A.** 230 nM
